Experiment [1] concerns protein leaked from the dural blood vessel caused by 5-HT. In words: Preventive effect in guinea pig migraine model (leaked protein). As to conditions: for leakage of the protein: 10 mg/kg or 30 mg/kg of oral administration. It is filed as in vivo. As for the experimental part: (4) Preventive Effect in Guinea Pig Migraine Model
In this test system, migraine preventive effect was evaluated by measuring this leaked protein in the presence of a compound to be tested, and this was carried out by partially modifying the method described in Rachel A. Spokes and Vicki C. Middlefell, European Journal of Pharmacology (1995) 281, 75-79.
Hartley male guinea pig (250-350 g) was anesthetized by peritoneal administration (i.p.) of urethane (1.5 g/kg). By applying simple canulation to a saphena, 50 mg/kg of a fluorescent protein (FITC-BSA) was intravenously administered (i.v.) and 5 minutes thereafter, physiological saline or 1 μM of 5-HT was intravenously administered. By carrying out perfusion with physiological saline 15 minutes thereafter, blood was washed out. […] By detaching the skull, dura mater was took out and incubated at 37° C. for 16 hours in an Eppendorf tube in the presence of physiological saline of pH 11. Centrifugation was carried out, and the supernatant was dispensed into a plate. Fluorescence intensity was measured using a fluorescence plate reader (excitation wavelength 485 nm, […] 530 nm). By measuring dura mater weight, fluorescence intensity per mg dural protein was calculated.
Values of the fluorescence intensity measured at the time of the administration of each compound and at the time of no administration are shown in FIG. 1 to FIG. 4. […] The control indicates fluorescence intensity at the time of no addition of 5-HT, namely the reference value.

The next experiment addresses human 5-HT7 receptor (Homo sapiens, UniProt P34969). Kind of experiment: Binding test of 5-HT7 receptor. As to conditions: [3H]5-HT, human 5-HT7 expressing CHO cell membrane. How it is done:
(2) Binding Test of 5-HT7 Receptor
(i) Preparation of Membrane Preparation
CHO cell was used as the gene transferring cell.
Cultured CHO cells expressing human 5-HT7 receptor were washed with PBS (−). The cells were scraped in the presence of PBS(−), and the cells were recovered by centrifugation (1,000 rpm, 10 min, 4° C.). They were homogenized using Polytron (PTA 10-TS) in the presence of 5 mM Tris-HCl (pH 7.4) buffer and centrifuged (40,000×g, 10 min, 4° C.). They were suspended using a homogenizer in the presence of 50 mM Tris-HCl (pH 7.4) buffer. They were subjected to centrifugation (40,000×g, 10 min, 4° C.), suspended in 50 mM Tris-HCl (pH 7.4) and stored at −80° C.
(ii) Receptor Binding Test
The compound was dissolved in 100% DMSO and diluted to respective concentrations. Nonspecific binding was defined as the binding quantity in the presence of 10 μM metergoline, and the result of subtracting the nonspecific binding quantity from the total binding quantity was defined as the specific binding quantity. This was mixed with 4 ml of 50 mM Tris-HCl buffer (pH 7.4) and filtered under a reduced pressure using a GF/B glass filter, and the filter was washed (4 ml×3) with the same buffer. The glass filter was soaked in 5 ml of a liquid scintillator (Aquasol-2) and the radioactivity was measured using a liquid scintillation counter.

In the next experiment the test system is 5-HT2B receptor. As to conditions: against 5-HT1A, 5-HT1B, 5-HT2A, 5-HT2C, 5-HT3, 5-HT6, 5-HT7, α1, M1 and D2 receptors; cited from earlier work.
Another experiment addresses 5-HT6 receptor (UniProt P50406). Kind of experiment: Affinity for other receptors: 5-HT6. It is filed as binding.
The next experiment has as its target 5-HT4 receptor (UniProt O70528). In words: Affinity for other receptors: 5-HT4. The experiment is classed as binding.
Another experiment concerns the target α1 receptor. In words: Affinity for other receptors: α1. The experiment is classed as binding.

Counter-ions that a name gives are not always drawn.

human 5-HT7 receptor, sequence (P34969 1-432 limits assumed): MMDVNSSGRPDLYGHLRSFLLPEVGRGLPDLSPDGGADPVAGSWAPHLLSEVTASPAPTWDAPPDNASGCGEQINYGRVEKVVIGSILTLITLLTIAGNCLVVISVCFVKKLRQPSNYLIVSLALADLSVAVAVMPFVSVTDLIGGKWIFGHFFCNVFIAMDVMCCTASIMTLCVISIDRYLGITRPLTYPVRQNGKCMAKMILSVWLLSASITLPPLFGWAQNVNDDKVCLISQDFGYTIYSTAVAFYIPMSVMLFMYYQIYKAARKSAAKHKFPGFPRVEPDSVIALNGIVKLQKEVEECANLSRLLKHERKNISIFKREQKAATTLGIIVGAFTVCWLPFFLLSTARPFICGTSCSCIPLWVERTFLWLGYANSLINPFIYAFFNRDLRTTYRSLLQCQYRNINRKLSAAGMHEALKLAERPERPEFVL

For `NC(N)=NC(=O)c1ccc2c(c1)C1(CCCO1)c1ccccc1-2` (single isomer, unassigned) [Example 60b, N-(diaminomethylene)-4′,5′-dihydro-3′H-spiro[fluorene-9,2′-furan]-2-carboxamide (optically active substance B)], the “leakage of the protein” value in experiment [1] is listed as “almost completely suppressed leakage of the protein”. The Ki is the equilibrium dissociation constant of an inhibitor or competing ligand from its target. Read a high Ki as a looser hold on the target. `NC(N)=NC(=O)c1ccc2c(c1)C1(CC1)c1ccccc1-2` [Example 63, N-(diaminomethylene)spiro[cyclopropane-1,9′-fluorene]-2′-carboxamide] returned a Ki at human 5-HT7 receptor of 0.4 to 310 nM. Regarding `CC1(O)c2cc(C(=O)N=C(N)N)ccc2-c2c(F)cccc21` (single isomer, unassigned) [Example 78b, N-(diaminomethylene)-5-fluoro-9-hydroxy-9-methyl-9H-fluorene-2-carboxamide (optically active substance B)], the “leakage of the protein” value in experiment [1] is “almost completely suppressed leakage of the protein”. On the same count and under the same terms, the same measure for `NC(N)=NC(=O)c1ccc2c(c1)C1(SCCS1)c1cccc(F)c1-2` [Example 85]: “almost completely suppressed leakage of the protein”. Regarding `CC(C)c1cc(-c2ccc(F)c3ccccc23)nc(N)n1` [RS-127445, 2-amino-4-(4-fluoronaphth-1-yl)-6-isopropylpyrimidine, reference compound], the 5-HT2B receptor selectivity in the experiment with 5-HT2B receptor is on record as 1000 times. In addition, the “amount of the leaked protein” value in experiment [1] (3 mg/kg, intraperitoneal, FIG. 1) is “showed an effect to reduce amount of the leaked protein”. Moreover, in experiment [1] (dose increased from 3 mg/kg to 10 mg/kg, intraperitoneal, FIG. 1), the “amount of the leaked protein versus reference value” is listed as “did not reduced to the reference value”. `CC(C)C1NC(=NC(=O)c2ccc3c(c2)C(O)c2ccccc2-3)NC1=O` [Example 8, 9-hydroxy-N-[(2EZ,4S)-4-isopropyl-5-oxoimidazolin-2-ylidene-9H-fluorene-2-carboxamide hydrochloride] showed a Ki at human 5-HT7 receptor of 0.4 to 310 nM. Still for that read-out and setting: the figure for `COC1(C)c2cc(C(=O)N=C(N)N)ccc2-c2c(F)cccc21` (stereo not shown) [Example 87, N-(diaminomethylene)-5-fluoro-9-methoxy-9-methyl-9H-fluorene-2-carboxamide] is 0.4 to 310 nM; for `CCC1(OC)c2ccccc2-c2ccc(C(=O)N=C(N)N)cc21` (stereo not shown) [Example 72, N-(diaminomethylene)-9-ethyl-9-methoxy-9H-fluorene-2-carboxamide] it is 0.4 to 310 nM. The same measure, in the same setting: the figure for `CC1(O)c2cc(C(=O)N=C(N)N)ccc2-c2c(F)cccc21` (racemic) [Example 77, N-(diaminomethylene)-5-fluoro-9-hydroxy-9-methyl-9H-fluorene-2-carboxamide] is 0.4 to 310 nM. Take `CC1(O)c2ccccc2-c2ccc(C(=O)N=C(N)N)cc21` (single isomer, unassigned) [Example 56a, N-(diaminomethylene)-9-hydroxy-9-methyl-9H-fluorene-2-carboxamide (optically active substance A)]: the Ki on human 5-HT7 receptor was in the range of 0.4 to 310 nM. Besides, the “leakage of the protein” value in experiment [1] is on record as “almost completely suppressed leakage of the protein”. Turning to `CC1(O)c2cc(C(=O)N=C(N)N)ccc2-c2c(F)cccc21` (single isomer, unassigned) [Example 78a, N-(diaminomethylene)-5-fluoro-9-hydroxy-9-methyl-9H-fluorene-2-carboxamide (optically active substance A)], the Ki on human 5-HT7 receptor was 0.4 to 310 nM. Still for that read-out and setting: the figure for `CC1(O)c2ccccc2-c2ccc(C(=O)N=C(N)N)cc21` (racemic) [Example 56, N-(diaminomethylene)-9-hydroxy-9-methyl-9H-fluorene-2-carboxamide] is 0.4 to 310 nM. Still for that read-out and setting: the same measure for `NC(N)=NC(=O)c1ccc2c(c1)C(O)c1c(Cl)cccc1-2` (stereo not shown) [Example 38, 8-chloro-N-(diaminomethylene)-9-hydroxy-9H-fluorene-2-carboxamide]: 0.4 to 310 nM; for `COC1(C)c2ccccc2-c2ccc(C(=O)N=C(N)N)cc21` (stereo not shown) [Example 71, N-(diaminomethylene)-9-methoxy-9-methyl-9H-fluorene-2-carboxamide]: 0.4 to 310 nM. On to `NC(N)=NC(=O)c1ccc2c(c1)C1(CCCO1)c1ccccc1-2` (single isomer, unassigned) [Example 60a, N-(diaminomethylene)-4′,5′-dihydro-3′H-spiro[fluorene-9,2′-furan]-2-carboxamide (optically active substance A)], for which, in experiment [1], the “leakage of the protein” value was “almost completely suppressed leakage of the protein”. The IC50 is the concentration needed to halve the response being measured. Higher therefore signals weaker potency in that assay. Regarding `Cl.NC(N)=NC(=O)c1ccc2c(c1)C(O)c1ccccc1-2` (stereo not shown) [Example 3, N-(diaminomethylene)-9-hydroxy-9H-fluorene-2-carboxamide hydrochloride], the IC50 at 5-HT6 receptor, against 5-HT4 receptor and at α1 receptor was ≥ 1000 nM each time. Moreover, the “amount of the leaked protein” value in experiment [1] (3 mg/kg of intraperitoneal administration, FIG. 4) was “almost completely suppressed the amount of leaked protein”. In the case of `NC(N)=NC(=O)c1ccc2c(c1)C1(SCCS1)c1ccccc1-2` [Example 59], the “leakage of the protein” value in experiment [1] is on record as “almost completely suppressed leakage of the protein”. Take `CC1CCN(CC[C@H]2CCCN2S(=O)(=O)c2cccc(O)c2)CC1` [SB-269970, (R)-3-(2-(2-(4-methylpiperidin-1-yl)ethyl)pyrrolidine-1-sulfonyl)phenol, reference compound]: the “amount of the leaked protein versus reference value” in experiment [1] (dose increased from 3 mg/kg to 30 mg/kg, intraperitoneal, FIG. 2) was “did not reduced the amount of leaked protein to the reference value”. Further, the “amount of the leaked protein” value in experiment [1] (from 10 mg/kg, intraperitoneal, FIG. 2) was “showed the effect”.

Values taken from patent US20080200551A1, “Flourene Derivative” (priority 2004, published 2008).
